This is an account of results in patent publication US10993926B2, “Use of IDHP in preparation of drug or health product for prevention and treatment of coronary atherosclerosis disease” (NORTHWEST UNIVERSITY, priority 2016, dated 2021).

Like-named read-outs stand apart in the source and are kept apart here.

The subject of data set [1] is human platelet aggregation induced by collagen. The experiment in a line: Collagen-induced normal human platelet aggregation, turbidimetry. It is filed as cell-based. Particulars: human PRP, collagen 3 μmol/L, compared with collagen alone (Ctrl), P<0.001, FIG. 6. As to the method: (§1) The whole blood samples of healthy volunteers were collected into the anticoagulant tubes and centrifuged at 800 g for 5 minutes at room temperature. The light yellow supernatant was the platelet-rich plasma (PRP); the remaining solution was further centrifuged at 4000 g for 10 minutes at room temperature, and the supernatant obtained was platelet-poor plasma (PPP).
(§2) PRP was adjusted to 3×10^5 platelets/μl with PPP, 300 μl of adjusted PRP was added to 30 μl of PBS or different concentrations of IDHP and incubated at 37° C. for 3 minutes in a blood coagulation apparatus. Collagen or ADP at a final concentration of 3 μmol/L was added to initiate the aggregation reaction of platelets. The inhibitory effect of IDHP and clopidogrel on platelet aggregation was determined by turbidimetry.

Data set [2] can be described thus: Acute toxicity test in mice with rapid administration (IV). Particulars: both sexes, mouse, in vivo, iv, mice, IV, administration completed within 5 seconds. The class given is in vivo. As to the method: (§3) 4.1 Acute Toxicity Test in Mice with Rapid Administration
(§4) Sixty mice were used, half male and half female, and randomly divided into 6 groups. […] The spacing between the concentrations was 1:0.9. After the animals were fasted for 12 hours, each group was subjected to IV administration, the volume was 20 ml/kg, and the administration was completed within 5 seconds for each animal.

Data set [3] relates to mice. The description is as above. The class given is in vivo. As to the method: as §3, §4
Data set [4] relates to red blood cells. The experiment in a line: Hemolysis assay. The class given is cell-based, domestic rabbit. Particulars: rabbit 2% red blood cells, IDHP groups 2 to 10 (10^−3 mol/l), 37±0.5° C., 0.5 h to 3 h. On the procedure:
Arterial blood from domestic rabbit was collected, fibrin was removed, red blood cells were washed with physiological saline and then formulated into a 2% red blood cell physiological saline solution. The test was operated according to Table 4, four parallel test tubes in each group.
After the above operation, the tubes were put in water bath at 37±0.5° C., one tube from each group was taken at 0.5 h, 1 h, 2 h and 3 h respectively, centrifuged at 3000 rpm for 15 minutes. Red blood cell hemolysis was observed, at the same time, the morphology of red blood cells was observed under light microscope.

The subject of data set [5] is human umbilical vein endothelial cells (HUVEC). The experiment in a line: Proliferation of human umbilical vein endothelial cells, CCK-8 method. Particulars: 10^−9 to 10^−7 M, 48 hours, compared with blank control, P<0.01, FIG. 1. It is filed as cell-based. As to the method: 1.1 Detect Proliferation of Human Umbilical Vein Endothelial Cells Promoted by IDHP—CCK-8 Method
Human umbilical vein endothelial cells were seeded in a 96-well plate at a density of approximately 2,500 cells per well. After the cells were culture for 24 hours, the medium was changed for a fresh medium containing drug, 100 μl/well, and the cells were continued culturing for 48 hours. 2 hours before the end of drug treatment, CCK-8 reagent was added to the culture medium in the dark, 10 μl per well. The culture was continued for 2 hours, and then the absorbance at 450 nm was determined with a microplate reader to calculate the cell proliferation rate.
Background: Formazan colour is commonly taken as a measure of viable cells.

In data set [6] the test system is primary human umbilical vein endothelial cells (HUVEC). Put plainly: Tube formation of HUVEC, Matrigel gel method. The class given is cell-based. Particulars: 8 hours on Matrigel, compared with Ctrl control group. As to the method:
1.3 Detect Tube Formation of Human Umbilical Vein Endothelial Cells (HUVEC) Promoted by IDHP—Matrigel Gel Method
Pipette tips and 96-well plate were pre-cooled at −20° C. Matrigel gel was placed on ice and melted, and then added to the pre-cooled 96-well plate (60 μl/well). Avoid the formation of air bubbles. The plate was placed on ice for 5 minutes to level the Matrigel gel, and then put into a cell culture incubator for 30 minutes to solidify. Endothelial cells were added to the wells (5×10^4 cells/well) containing Matrigel gel, and fresh medium containing different concentrations of the drug was added, incubated at 37° C. for 8 hours. The plate was observed under a microscope, 5 fields of view were chosen at 0, 3, 6, 9 o'clock positions and the center of each well, the number of tubules and the integrity of the tubular structure were observed and images were acquired.

For data set [7], the system named is human umbilical vein endothelial cells (HUVEC). The experiment in a line: Migration of HUVEC, scratch method. The class given is cell-based. Particulars: 10^−10 to 10^−7 M, 16 hours, FIG. 2. As to the method: 1.2 Detect Migration of Human Umbilical Vein Endothelial Cells (HUVEC) Promoted by IDHP—Scratch Method
Endothelial cells were seeded on a cover slip pre-coated with gelatin in a 24-well plate at a density of about 10^5 cells per well. After the cells attached to the cover slip and reached confluence, cells were starved in a medium without serum for 4 hours. A home-made tool was used to make scratch on the cover slip with cells. The cover slip was washed twice with PBS, and a medium containing drug was added, 600 μl/well. Control group was immediately fixed with ice-cold methanol at zero time point; rest of the cells were cultured for 16 hours, and then fixed with ice-cold methanol. Images were acquired under a microscope and subjected to statistics analysis.

For data set [8], the system named is human platelet aggregation induced by ADP. Put plainly: ADP-induced normal human platelet aggregation, turbidimetry. It is filed as cell-based. Particulars: human PRP, ADP 3 μmol/L, compared with ADP alone (Ctrl), FIG. 6. On the procedure: as §1, §2
In data set [9] the test system is zebrafish intersegmental vessels. The experiment in a line: Angiogenesis in transgenic Tg (VEGFR2:GFP) zebrafish (intersegmental vessels). Particulars: for Length of Blood Vessels / Number of Blood Vessels: zebrafish ISV. The class given is in vivo. As to the method: The transgenic Tg (VEGFR2:GFP) zebrafishes were cultured under the standard conditions of illumination for 14 hours/dark for 10 hours at 28° C. Healthy and mature zebrafishes were put into a breeding container at a ratio of female to male 1/1 or 1/2 for mating. The fertilized eggs were obtained at 9 to 10 o'clock the next day. The fertilized eggs were sterilized and washed, then transferred to zebrafish embryo culture medium and cultured at 28° C.
Drug solution was added to a 24-well culture plate, and 24 hpf embryos were carefully transferred to wells, 8-10 per well, and culture medium was added until a total volume of 2 ml to make sure that the final concentration of DMSO in the medium was not higher than 1%. After 24-hour drug treatment, the embryos were observed under a fluorescence microscope, and the total number of intersegmental vessels in trunk and tail were counted, and the relative generation rate of ISV in each administration group was calculated. Analysis of variance between groups was performed using SPSS software.

Data set [10] can be described thus: Acute toxicity test in mice with slow administration (tail vein). The class given is in vivo. Particulars: both sexes, mouse, in vivo, intravenous, mice, tail vein, administration completed within 10 minutes, 14 days observation. On the procedure: (§5) 4.2 Acute Toxicity Test in Mice with Slow Administration
(§6) After housing in the laboratory for 1 day, the test mice with qualified body weight were selected and randomly divided into groups according to body weight and sex, 10 for each group, half male and half female. According to the result of premeasurement, the absolute lethal dose was 2.4 g/kg. The mice were subjected to tail vein administration, the dose for the mice was calculated according to body weight. The doses were 2.4 g/kg, 2.2 g/kg, 2.0 g/kg, and 1.8 g/kg, respectively, and the drug delivery rate was calculated. The administration was completed within 10 minutes. The reactions of the mice were observed after the administration and the death of the mice was recorded within 14 days.
(§7) The main toxic reactions after intravenous administration were central inhibition, respiratory failure, etc. Most of the death occurred during the administration period. […] After 14 days of observation, the mortality rate of the mice was calculated.

In data set [11] the test system is mice. Described as above. The class given is in vivo. On the procedure: as §5, §6, §7

For orientation: LD50 means the dose at which mortality reaches 50%. Take `CC(C)OC(=O)C(O)Cc1ccc(O)c(O)c1` (stereo not drawn) [IDHP, β-(3,4-dihydroxyphenyl)-α-hydroxyisopropyl propionate]: in [1], the “inhibitory effect on collagen-induced platelet aggregation” value is “more significant”. The median lethal dose (LD50) is 370 to 486 mg/kg in data set [2] (read-out: LD50 95% confidence interval); 424 ± 58 mg/kg in data set [2] (read-out: LD50 (Bliss method, Feiller heterogeneity correction)); 424 mg/kg in [2] (read-out: LD50 (regression equation, without heterogeneity correction)). For the same molecule, in data set [3] (both, mouse, in vivo, iv), the “time until undead animals returned to normal” value was determined as 10 min. Also, the “Mortality Rate (%)” value in [3] (both, mouse, in vivo, iv, 320 mg/kg) worked out at 0%; in data set [3] (both, mouse, in vivo, iv, 375 mg/kg), 40%; in data set [3] (both, mouse, in vivo, iv, 400 mg/kg), 40%; in data set [3] (both, mouse, in vivo, iv, 480 mg/kg), 50%; in [3] (both, mouse, in vivo, iv, 530 mg/kg), 100%; in [3] (both, mouse, in vivo, iv, 629 mg/kg) it was 100%. The “time to death after the administration” value in data set [3] (mice, rapid IV, dead animals) was not above 1 min. Besides, the “autopsy of dead mice, vital organs (heart, liver, spleen, lung, kidney, brain, stomach, intestine)” value in data set [3] (mouse, in vivo, iv) was “no abnormality”. Also, in [4], the “red blood cell hemolysis” value was “no obvious hemolysis”. In addition, the “proliferation of vascular endothelial cell” value in [5] is “significantly promoted”. In addition, the “tube formation of primary HUVEC” value in data set [6] was “significantly promoted”. Besides, the “migration of human umbilical vein endothelial cells (HUVEC)” value in data set [7] is “could promote the migration”. Further, in data set [8], the “inhibitory effect on ADP-induced platelet aggregation” value is given as “significantly inhibit”. Besides, the “growth of intersegmental vessels and posterior longitudinal blood vessels in zebrafish” value in [9] (0.01, 0.1 and 1.0 μM, 24-hour treatment, FIG. 4) is recorded as “significantly promoted”. The “relative generation rate of ISV” value in data set [9] (calculated from total vessel length vs PTK787 control and normal control, FIG. 5) is “dose-dependent relationship”. In addition, the “Length of Blood Vessels” value is on record as 287.4 ± 18.8 μm in data set [9] (0.01 μM), 359.2 ± 58.2 μm in data set [9] (0.1 μM) and 447.6 ± 19.5 μm in data set [9] (1.0 μM). For the same molecule, the “Number of Blood Vessels” value in data set [9] (0.01 μM) is reported as 25.0 ± 8.6; in data set [9] (0.1 μM), 26.1 ± 3.3. The median lethal dose (LD50) at 14 days in data set [10] (read-out: LD50 95% confidence limit) was 1960 to 2140 mg/kg; in data set [10] (read-out: LD50 (Bliss method)), 2050 mg/kg. The absolute lethal dose in [11] (mice, premeasurement) worked out at 2400 mg/kg. Further, in data set [11] (mouse, in vivo), the anatomy findings entry is “No abnormal changes”.
With `Clc1ccc(Nc2nnc(Cc3ccncc3)c3ccccc23)cc1` [PTK787, reference compound], in [9] (0.1 μg/ml), the “Number of Blood Vessels” value was 3.6 ± 1.3. Further, in data set [9] (0.1), the “Length of Blood Vessels” value came out at 36.4 ± 14.2 μm.
Turning to `COC(=O)[C@H](c1ccccc1Cl)N1CCc2sccc2C1` [clopidogrel, reference compound], in [8], the “inhibitory effect on ADP-induced platelet aggregation” value is recorded as “significantly inhibited”.
In the case of VEGF, in [9] (10 ng/ml), the “Length of Blood Vessels” value was 420.0 ± 54.2 μm and the “Number of Blood Vessels” value was 29.3 ± 3.3.
